Data as given in US9493411B2 (AbbVie Inc., priority 2013, dated 2016).
pKi: −log10 of the molar value.

Key:
BRD4 (BDI_K57-E168) = target: T1, BRD4 (BDI_K57-E168) (Homo sapiens, UniProt O60885); assay: TR-FRET bromodomain binding assay, BRD4 first bromodomain; settings: His-tagged BD1, Alexa647-labeled probe 100 nM; Ki calculated from IC50
T1 construct: BD1: amino acids K57-E168; made in house
Description: (§1) A time-resolved fluorescence resonance energy transfer (TR-FRET) assay was used to determine the affinities of compounds of the Examples listed in Table 1 for each bromodomain of BRD4. His-tagged first (BD1: amino acids K57-E168) and second (BD2: amino acids E352-E168) bromodomains of BRD4 were expressed and purified. An Alexa647-labeled BET-inhibitor was used as the fluorescent probe in the assay.
(§2) Compound dilution series were prepared in DMSO via a 3-fold serial dilution from 2.5 mM to 42 nM. Compounds were then diluted 6:100 in assay buffer (20 mM Sodium Phosphate, pH 6.0, 50 mM NaCl, 1 mM Ethylenediaminetetraacetic acid disodium salt dihydrate, 0.01% Triton X-100, 1 mM DL-Dithiothreitol) to yield 3× working solutions. Six microliters (μL) of the working solution was then transferred to white, low-volume assay plates (Costar #3673). A 1.5× assay mixture containing His-tagged bromodomain, Europium-conjugated anti-His antibody (Invitrogen PV5596) and the Alexa-647-conjugated probe molecule was also prepared. Twelve μL of this solution were added to the assay plate to reach a final volume of 18 μL. The final concentration of 1× assay buffer contains 2% DMSO, 50 μM-0.85 nM compound, 8 nM His-tagged bromodomain, 1 nM Europium-conjugated anti-His-tag antibody and 100 nM or 30 nM probe (for BDI or BDII, respectively). After a one-hour incubation at room temperature, TR-FRET ratios were determined using an Envision multilabel plate reader (Ex 340, Em […]).
(§3) TR-FRET data were normalized to the means of 24 no-compound controls (“high”) and 8 controls containing 1 μM un-labeled probe (“low”). Percent inhibition was plotted as a function of compound concentration and the data were fit with the 4 parameter logistic equation to obtain IC50s. Inhibition constants (Ki) were calculated from the IC50s, probe Kd and probe concentration. Typical Z′ values were between 0.65 and 0.75. The minimum significant ratio was determined to evaluate assay reproducibility (Eastwood et al., (2006) J Biomol Screen, 11: 253-261). The MSR was determined to be 2.03 for BDI and 1.93 for BDII, and a moving MSR (last six run MSR overtime) for both BDI and BDII was typically <3.

BRD4 (BDII_E352-M457) = target: T2, BRD4 (BDII_E352-M457) (Homo sapiens, UniProt O60885); assay: TR-FRET bromodomain binding assay, BRD4 second bromodomain; settings: His-tagged BD2, Alexa647-labeled probe 30 nM; Ki calculated from IC50
T2 construct: made in house
Description: as §1, §2, §3

SMILES | pKi (BRD4 (BDI_K57-E168)) | pKi (BRD4 (BDII_E352-M457))
Cc1[nH]c(-c2cccc(N)c2)cc1C(N)=O [Example 4, 5-(3-aminophenyl)-2-methyl-1H-pyrrole-3-carboxamide] | 5.28 | 5.35
Cc1[nH]c(-c2ccccc2Oc2ccc(Oc3ccccc3)cc2)cc1C(N)=O [Example 122, 2-methyl-5-[2-(4-phenoxyphenoxy)phenyl]-1H-pyrrole-3-carboxamide] | 5.71 | 5.15
Cc1[nH]c(-c2ccccc2NCc2c(F)cccc2F)cc1C(N)=O [Example 22, 5-{2-[(2,6-difluorobenzyl)amino]phenyl}-2-methyl-1H-pyrrole-3-carboxamide] | 5.53 | 5.44
Cc1[nH]c(-c2cccc(-c3cccnc3)c2)cc1C(N)=O [Example 154, 2-methyl-5-[3-(pyridin-3-yl)phenyl]-1H-pyrrole-3-carboxamide] | 5.52 | 5.15
Cc1[nH]c(-c2ccccc2Nc2ccccc2)cc1C(N)=O [Example 77, 2-methyl-5-[2-(phenylamino)phenyl]-1H-pyrrole-3-carboxamide] | 6.76 | 6.01
Cc1[nH]c(-c2cccc(-c3cn[nH]c3)c2)cc1C(N)=O [Example 155, 2-methyl-5-[3-(1H-pyrazol-4-yl)phenyl]-1H-pyrrole-3-carboxamide] | 5.59 | 5.26
Cc1[nH]c(-c2cccc(-c3ccc4c(ccn4C)c3)c2)cc1C(N)=O [Example 156, 2-methyl-5-[3-(1-methyl-1H-indol-5-yl)phenyl]-1H-pyrrole-3-carboxamide] | 5.07 | 4.66
Cc1[nH]c(-c2ccccc2NCC2CCN(C(=O)OC(C)(C)C)CC2)cc1C(N)=O [Example 41, tert-butyl 4-({[2-(4-carbamoyl-5-methyl-1H-pyrrol-2-yl)phenyl]amino}methyl)piperidine-1-carboxylate] | 6.32 | 4.78
Cc1[nH]c(-c2ccccc2NS(=O)(=O)C2CCCCC2)cc1C(N)=O [Example 79, 5-{2-[(cyclohexylsulfonyl)amino]phenyl}-2-methyl-1H-pyrrole-3-carboxamide] | 6.04 | 5.58
Cc1[nH]c(-c2cc(N)ccc2Oc2ccccc2)cc1C(N)=O [Example 161, 5-(5-amino-2-phenoxyphenyl)-2-methyl-1H-pyrrole-3-carboxamide] | 6.96 | 6.18
COC(=O)CCNC(=O)c1cc(-c2ccc(-c3c(C)noc3C)cc2)[nH]c1C [Example 93, methyl N-({5-[4-(3,5-dimethyl-1,2-oxazol-4-yl)phenyl]-2-methyl-1H-pyrrol-3-yl}carbonyl)-beta-alaninate] | 5.29 | 5.19
Cc1[nH]c(-c2cccc([N+](=O)[O-])c2)cc1C(N)=O [Example 3, 2-methyl-5-(3-nitrophenyl)-1H-pyrrole-3-carboxamide] | 5.63 | 5.14
Cc1[nH]c(-c2ccc(-c3ccc(NS(C)(=O)=O)cc3)cc2)cc1C(N)=O [Example 110, 2-methyl-5-{4′-[(methylsulfonyl)amino]biphenyl-4-yl}-1H-pyrrole-3-carboxamide] | 5.39 | 5.23
Cc1[nH]c(-c2ccccc2NC2Cc3ccccc3C2)cc1C(N)=O [Example 69, 5-[2-(2,3-dihydro-1H-inden-2-ylamino)phenyl]-2-methyl-1H-pyrrole-3-carboxamide] | 6.18 | 5.63
CCOC(=O)Cc1ccc(OCc2ccccc2)c(-c2cc(C(N)=O)c(C)[nH]2)c1 [Example 165, ethyl [4-(benzyloxy)-3-(4-carbamoyl-5-methyl-1H-pyrrol-2-yl)phenyl]acetate] | 6.23 | 5.13
Cc1cccc(CNc2ccccc2-c2cc(C(N)=O)c(C)[nH]2)c1 [Example 25, 2-methyl-5-{2-[(3-methylbenzyl)amino]phenyl}-1H-pyrrole-3-carboxamide] | 5.90 | 5.67
Cc1noc(C)c1-c1ccc(-c2cc(C(=O)NO)c(C)[nH]2)cc1 [Example 95, 5-[4-(3,5-dimethyl-1,2-oxazol-4-yl)phenyl]-N-hydroxy-2-methyl-1H-pyrrole-3-carboxamide] | 5.29 | 5.25
Cc1[nH]c(-c2cccc3[nH]cnc23)cc1C(N)=O [Example 163, 5-(1H-benzimidazol-4-yl)-2-methyl-1H-pyrrole-3-carboxamide] | 6.04 | 5.55

SMILES | pKi (BRD4 (BDI_K57-E168)) | pKi (BRD4 (BDII_E352-M457))
Cc1[nH]c(-c2ccc(-c3cncnc3)cc2)cc1C(N)=O [Example 109, 2-methyl-5-[4-(pyrimidin-5-yl)phenyl]-1H-pyrrole-3-carboxamide] | 5.03 | 5.35
Cc1[nH]c(-c2cc(NS(C)(=O)=O)ccc2Oc2ccccc2)cc1C(N)=O [Example 162, 2-methyl-5-{5-[(methylsulfonyl)amino]-2-phenoxyphenyl}-1H-pyrrole-3-carboxamide] | 7.23 | 6.12
Cc1cc(CNc2ccccc2-c2cc(C(N)=O)c(C)[nH]2)oc1C [Example 20, 5-(2-{[(4,5-dimethylfuran-2-yl)methyl]amino}phenyl)-2-methyl-1H-pyrrole-3-carboxamide] | 5.92 | 5.48
Cc1[nH]c(-c2cccc(-c3ccccc3)c2)cc1C(N)=O [Example 150, 5-(biphenyl-3-yl)-2-methyl-1H-pyrrole-3-carboxamide] | 4.97 | 5.01
Cc1[nH]c(-c2cc(CC(=O)O)ccc2OCc2ccccc2)cc1C(N)=O [Example 166, [4-(benzyloxy)-3-(4-carbamoyl-5-methyl-1H-pyrrol-2-yl)phenyl]acetic acid] | 6.20 | 4.98
Cc1[nH]c(-c2ccccc2NCc2ccccc2Cl)cc1C(N)=O [Example 34, 5-{2-[(2-chlorobenzyl)amino]phenyl}-2-methyl-1H-pyrrole-3-carboxamide] | 5.85 | 5.46
Cc1[nH]c(-c2ccccc2N)cc1C(N)=O [Example 1, 5-(2-aminophenyl)-2-methyl-1H-pyrrole-3-carboxamide] | 5.60 | 5.21
Cc1[nH]c(-c2ccccc2NCC2CC2)cc1C(N)=O [Example 26, 5-{2-[(cyclopropylmethyl)amino]phenyl}-2-methyl-1H-pyrrole-3-carboxamide] | 6.07 | 5.12
CC(=O)Nc1ccccc1-c1cc(C(N)=O)c(C)[nH]1 [Example 2, 5-[2-(acetylamino)phenyl]-2-methyl-1H-pyrrole-3-carboxamide] | 5.53 | 4.67
Cc1[nH]c(-c2ccc(N)cc2)cc1C(N)=O [Example 8, 5-(4-aminophenyl)-2-methyl-1H-pyrrole-3-carboxamide] | 5.57 | 5.43
Cc1[nH]c(-c2ccc(-c3ccoc3)cc2)cc1C(N)=O [Example 100, 5-[4-(furan-3-yl)phenyl]-2-methyl-1H-pyrrole-3-carboxamide] | 5.08 | 5.27
CC(=O)Nc1ccc(-c2cc(C(N)=O)c(C)[nH]2)cc1 [Example 10, 5-[4-(acetylamino)phenyl]-2-methyl-1H-pyrrole-3-carboxamide] | 5.46 | 5.25
Cc1[nH]c(-c2ccccc2NCc2ccc(Br)cc2)cc1C(N)=O [Example 32, 5-{2-[(4-bromobenzyl)amino]phenyl}-2-methyl-1H-pyrrole-3-carboxamide] | 5.29 | 4.99
Cc1[nH]c(-c2ccccc2NCC2CCCCC2)cc1C(N)=O [Example 36, 5-{2-[(cyclohexylmethyl)amino]phenyl}-2-methyl-1H-pyrrole-3-carboxamide] | 6.28 | 5.94
Cc1[nH]c(-c2ccc(-c3cnn(C)c3)cc2)cc1C(N)=O [Example 103, 2-methyl-5-[4-(1-methyl-1H-pyrazol-4-yl)phenyl]-1H-pyrrole-3-carboxamide] | 5.33 | 5.46
Cc1[nH]c(-c2ccccc2NS(=O)(=O)c2ccccc2)cc1C(N)=O [Example 78, 2-methyl-5-{2-[(phenylsulfonyl)amino]phenyl}-1H-pyrrole-3-carboxamide] | 5.40 | 6.15
Cc1[nH]c(-c2ccccc2Oc2ccc3c(c2)CCC3)cc1C(N)=O [Example 144, 5-[2-(2,3-dihydro-1H-inden-5-yloxy)phenyl]-2-methyl-1H-pyrrole-3-carboxamide] | 6.35 | 5.91
